Here are results for 24 molecules from PubChem BioAssay (NCI).

What all share (test): NCI tumour cell line growth inhibition, 48 h
For experiment [1], the system named is MOLT-4 leukemia.
For experiment [2], the system named is A498 renal.
The subject of experiment [3] is RPMI-8226 leukemia.
Experiment [4] deals with HOP-62 NSCLC.
Experiment [5] deals with KM12 colon.
Experiment [6] relates to EKVX NSCLC.
Experiment [7] has as its system MDA-MB-231 breast.
Experiment [8] deals with COLO 205 colon.
Experiment [9] concerns MALME-3M melanoma.
Experiment [10] has as its system NCI-H522 lung.

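Interpolation was linear, between the two tested concentrations surrounding the appropriate level; five concentrations were tested over 48 hours in 96-well plates. TGI: total growth inhibition.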

Take `CC1(c2ccc(Cl)cc2)c2ccccc2C(=O)N1CCCN1C(=O)c2ccccc2C1=O` (stereo not given): the TGI in experiment [1] was > 100 µM; in experiment [2], > 100 µM; in experiment [3] it was > 100 µM; in experiment [4], > 100 µM; in experiment [5] it was 50.8 µM; in experiment [6], 7.25 µM. Also, the results for the TGI in [7] and in experiment [8] were > 100 µM and 36.2 µM, respectively.
With `CC(C)C(Nc1c2ccccc2[n+](C)c2ccccc12)C(=O)O` (stereo not given), the TGI in experiment [1], in experiment [2], in experiment [3], in experiment [4], in experiment [5] and in [6] was > 100 µM throughout. Besides, the TGI in experiment [9], in [8] and in experiment [10] was > 100 µM throughout.
Turning to `Cc1c(-c2ccccc2)oc(=O)c2ccccc12`, the TGI in experiment [1] amounted to 60.1 µM; in experiment [3], 36.5 µM; in [4], 43.5 µM; in [5] it was 51.9 µM; in [6], 60.9 µM; in experiment [9], 52.8 µM. The TGI amounted to 36.5 µM in experiment [7], 33.7 µM in experiment [8] and 33.2 µM in experiment [10].
With `N#Cc1nc(-c2ccsc2)oc1N`, the TGI in experiment [1], in experiment [2], in [3], in experiment [4], in experiment [5] and in experiment [6] was > 100 µM throughout. In addition, in [7], the TGI is > 100 µM.
As for `Nc1ncnc2c1ncn2C1C(O)C=C(CO)C1O` (stereo not given), the TGI in [3], in experiment [4], in [5], in [9] and in experiment [8] was > 625 µM throughout.
With `COC(=O)[C@]1(c2cc3ccccc3[nH]2)CC2CNC1C1OC(C)(C)OC21` (stereo not given in full), the TGI in experiment [1], in [3], in [4], in experiment [5], in experiment [6] and in experiment [9] was > 100 µM throughout. The TGI in experiment [7], in [8] and in experiment [10] was > 100 µM in each case.
As to `COc1cc(C2C3=C(NC(=O)C2C#N)c2ccc4ccccc4c2OCC3)cc(OC)c1OC` (stereo not given), the TGI in experiment [1] was > 100 µM; in experiment [2], 44 µM; in [3], > 100 µM; in experiment [4], 50.5 µM; in experiment [5], > 100 µM; in experiment [6], > 100 µM. The TGI is 72.5 µM in experiment [9], 33.1 µM in [8] and > 100 µM in [10].
With `Clc1ccc(C2=CC(c3ccccc3)N3C(=N[C@H]4CCCC[C@@H]43)N2)cc1` (stereo not given in full), the TGI turned out to be 12.5 µM in experiment [1]; 22.2 µM in experiment [2]; 7.02 µM in [3]; 8.79 µM in [5]; 17.4 µM in experiment [6]; 14.5 µM in experiment [9]. Also, the results for the TGI in experiment [7] and in experiment [8] were 22.1 µM and 4.23 µM, respectively.
In the case of `CCOC(=O)CCC(C(=O)OCC)n1nnc2cc(Nc3c(C)[n+]([O-])c4cc(Cl)ccc4[n+]3[O-])ccc21` (stereo not given), the TGI in experiment [1] was > 100 µM; in experiment [2], > 100 µM; in [3] it was > 100 µM; in experiment [4], > 100 µM; in experiment [5], > 100 µM; in experiment [6], 71.9 µM. The TGI in [9], in [8] and in [10] was > 100 µM in each case.
As to `C=C(C)C1CCC2(C)C1CCC1(C)C2CCC2C3(C)C4OC(OC4=O)C(C)(C)C3CCC21C` (stereo not given), the TGI in experiment [1], in experiment [2], in experiment [3], in [4], in experiment [5] and in experiment [6] was > 100 µM in each case. Further, the TGI is > 100 µM in experiment [7], > 100 µM in experiment [8] and 53.6 µM in [10].
On to `CCOC(=O)NCC(=O)NCC(=O)NCC(N)=O`, for which the TGI in experiment [1], in [3], in experiment [4], in experiment [5], in experiment [6] and in experiment [9] was > 100 µM throughout. For the same molecule, the TGI in experiment [7], in [8] and in experiment [10] was > 100 µM in each case.
On to `C[C@]12CC[C@H]3[C@@H](CCC4=C/C(=N/OCCN5CCCCC5)CC[C@@]43C)[C@@H]1CC[C@@H]2O`, for which the TGI in [1] is 20.9 µM; in experiment [3], 24.9 µM; in experiment [4], 29.1 µM; in [5], 21.8 µM; in experiment [6], > 100 µM; in experiment [9], 33.7 µM. The TGI in experiment [7] worked out at 50.6 µM; in experiment [8], 47.3 µM; in [10] it was 36.1 µM.
As for `CCOC(=O)/C(=C/c1cn(C(C)=O)c2ccccc12)P(=O)(OC)OC`, the TGI in [1] was 74.6 µM; in experiment [2], 52.4 µM; in experiment [3], 50.7 µM; in [4], > 100 µM; in experiment [7], > 100 µM; in experiment [10] it was 79.3 µM.
On to `CCCCCCCCCCCCCCCCOC[C@H](COC(c1ccccc1)(c1ccccc1)c1ccccc1)O[P+](=S)OC` (stereo not given in full), for which the TGI in experiment [1], in experiment [2], in experiment [3], in experiment [5], in [6] and in [7] was > 100 µM in each case. Also, the TGI in [8] and in [10] was > 100 µM each time.
In the case of `CCn1c(-c2cc3ccccc3cc2OC(C)=O)n[nH]c1=S`, the TGI in experiment [1] was 51.3 µM; in experiment [2], 84.8 µM; in [3], 44.6 µM; in [4] it was > 100 µM; in experiment [5] it was > 100 µM; in [6], 57.9 µM. The TGI came out at 80.4 µM in experiment [7] and 38.8 µM in [10].
As to `COc1ccc(C=C2C(C)=NN(c3cccc(Cl)c3)C23C(Cl)C(=O)N3c2nc3ccccc3s2)cc1` (stereo not given), the TGI in experiment [1] was 68 µM; in [2], 34.8 µM; in experiment [3] it was > 100 µM; in experiment [4], 44.4 µM; in experiment [5] it was 34.8 µM; in experiment [6], > 100 µM. In addition, the TGI in [7] turned out to be 51.5 µM; in experiment [10], 22 µM.
In the case of `CCOC(=O)CSc1nc(-c2ccc(Cl)cc2)c(C#N)c(=O)[nH]1`, the TGI in [1], in experiment [2], in [3], in [4], in experiment [5] and in [6] was > 100 µM in each case. Further, the TGI in experiment [7], in experiment [8] and in experiment [10] was > 100 µM in each case.
In the case of `CC1OC23CCCCC2C(C#N)(C#N)C1(C#N)C(=N)O3` (stereo not given), the TGI in [1] is 90.1 µM; in [2], 61.6 µM; in experiment [5] it was 61.1 µM; in [6], 91.1 µM; in [9] it was 43.5 µM; in [7] it was 32.1 µM. The molecule further came in with a TGI in experiment [8] of 38.5 µM.
Regarding `CCOC(=O)C(NC(=O)c1ccccc1)(Nc1ccc(S(=O)(=O)Nc2cc(C)on2)cc1)C(F)(F)F` (stereo not given), the TGI in experiment [1], in [3], in [4], in [5], in experiment [6] and in [9] was > 100 µM in each case. For the same molecule, the TGI in [7], in experiment [8] and in [10] was > 100 µM throughout.
Turning to `CCCCCCCCCCCCCCCC[N+](C)(C)CCl`, the TGI in experiment [2] is 32.2 µM; in experiment [3], 5.16 µM; in experiment [4], 6.69 µM; in [6], 22.8 µM; in [9] it was 7.38 µM; in [7] it was 4.32 µM. Further, the TGI in experiment [8] was determined as 4.16 µM.
In the case of `O=c1[nH]c2ccccc2c(=O)n1/N=C\c1ccccc1O`, the TGI in experiment [1], in experiment [2], in experiment [3], in experiment [4], in experiment [5] and in experiment [6] was > 100 µM throughout. Also, the TGI in experiment [7] and in experiment [8] was > 100 µM throughout.
Consider `CC(C)(C)C(=O)C(N)C(=O)C(C)(C)C`, for which the TGI in experiment [1], in experiment [3], in experiment [4], in experiment [5], in experiment [9] and in experiment [7] was > 100 µM throughout. In addition, the TGI in [8] and in experiment [10] was > 100 µM in each case.
On to `Cc1cc(C)c(C2=NO[C@@H]3[C@H]2C(=O)C=C2N(Cc4ccccc4)CCO[C@@]23O)c(C)c1`, for which the TGI in [1], in experiment [2], in [3], in experiment [4], in experiment [5] and in [6] was > 100 µM throughout. Also, the TGI in [9], in experiment [8] and in experiment [10] was > 100 µM each time.
For `c1csc(-c2cc(-c3ccsc3)cs2)c1`, the TGI in experiment [1], in [2], in [3], in experiment [4], in experiment [5] and in experiment [6] was > 100 µM throughout. The TGI in experiment [7] and in experiment [8] was > 100 µM each time.
